Changes are numbered by the printed parent chain. pEC50: −log10 of the molar value.

What all share (experiment): inside-out patch clamp, Xenopus oocytes
In general terms: In patch-clamp work, channel activity is measured electrically.

Assay [1] concerns the target T1, HCN2 (Mus musculus, UniProt O88703).
T1 sequence (O88703 1-863): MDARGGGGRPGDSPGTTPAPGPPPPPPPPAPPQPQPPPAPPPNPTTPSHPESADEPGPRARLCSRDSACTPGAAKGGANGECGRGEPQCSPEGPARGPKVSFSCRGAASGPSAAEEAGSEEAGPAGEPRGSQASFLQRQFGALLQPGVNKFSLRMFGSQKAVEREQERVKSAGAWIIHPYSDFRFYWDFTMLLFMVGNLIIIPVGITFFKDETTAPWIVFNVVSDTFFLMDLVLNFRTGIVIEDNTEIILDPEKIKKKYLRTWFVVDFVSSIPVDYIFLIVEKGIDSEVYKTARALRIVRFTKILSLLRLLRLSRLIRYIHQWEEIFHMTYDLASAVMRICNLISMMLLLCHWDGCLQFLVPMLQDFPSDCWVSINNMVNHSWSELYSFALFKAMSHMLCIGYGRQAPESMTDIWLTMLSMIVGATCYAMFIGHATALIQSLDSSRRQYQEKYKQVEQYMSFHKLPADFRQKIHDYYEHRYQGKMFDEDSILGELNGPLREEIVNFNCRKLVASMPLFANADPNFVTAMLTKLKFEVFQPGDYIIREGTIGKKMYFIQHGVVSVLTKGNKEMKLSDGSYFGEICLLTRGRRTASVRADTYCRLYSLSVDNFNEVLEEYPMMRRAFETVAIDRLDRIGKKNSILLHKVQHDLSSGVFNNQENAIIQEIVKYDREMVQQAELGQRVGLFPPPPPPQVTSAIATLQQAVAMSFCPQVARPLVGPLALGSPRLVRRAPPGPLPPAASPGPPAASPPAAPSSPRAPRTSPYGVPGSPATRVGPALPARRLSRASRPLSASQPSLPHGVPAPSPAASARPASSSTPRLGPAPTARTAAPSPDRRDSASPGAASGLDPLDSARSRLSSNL
The assay is classed as cell-based.

Assay [2] deals with T1, HCN2. The class given is biochemical.
The target in a further assay is T2, HCN2/FPN (Mus musculus, UniProt O88703, Q450F/E451P/K452N).
T2 sequence (O88703 1-863 Q450F/E451P/K452N): T1 sequence (O88703 1-863) with Q450F, E451P, K452N
The class given is cell-based.

The target of assay [3] is T1, HCN2. The assay is classed as cell-based. This is another data set of the same source.

As for `CCCCCCCC(=O)OC[C@H](COP(=O)(O)O[C@H]1[C@H](O)[C@@H](O)[C@H](OP(=O)(O)O)[C@@H](OP(=O)(O)O)[C@H]1O)OC(=O)CCCCCCC` [diC8 PI(3,4)P2, dioctanoyl phosphatidylinositol 3,4-bisphosphate], on HCN2 [1], the “inside-out patch clamp, Xenopus oocytes; shift in V1/2 at 25 μM” value worked out at 12.3 mV.
Still for that read-out and setting: in the case of `CCCCCCCC(=O)OC[C@H](COP(=O)(O)O[C@H]1[C@H](O)[C@@H](OP(=O)(O)O)[C@H](OP(=O)(O)O)[C@@H](OP(=O)(O)O)[C@H]1O)OC(=O)CCCCCCC` [diC8 PI(3,4,5)P3, dioctanoyl phosphatidylinositol 3,4,5-trisphosphate] it was 9.3 mV; in that of `CCCCCCCC(=O)OC[C@H](COP(=O)(O)O[C@H]1[C@H](O)[C@@H](O)[C@H](OP(=O)(O)O)[C@@H](O)[C@H]1O)OC(=O)CCCCCCC` [diC8 PI(4)P, dioctanoyl phosphatidylinositol 4-phosphate], 7.5 mV.
For orientation: pEC50 means the EC50 on a negative log10 scale, so that one unit is a factor of ten. Higher therefore signals a small EC50. On HCN2 [2], `CCCCCCCC(=O)OC[C@H](COP(=O)(O)O[C@@H]1[C@H](O)[C@H](O)[C@@H](OP(=O)(O)O)[C@H](OP(=O)(O)O)[C@H]1O)OC(=O)CCCCCCC` [diC8 PI(4,5)P2, dioctanoyl phosphatidylinositol 4,5-bisphosphate] gave a negative logarithm of the EC50 (pEC50) of 4.96. Also, the “inside-out patch clamp, Xenopus oocytes; shift in V1/2 at 25 μM” value at HCN2/FPN is “+13.9 mV”.
Consider `CCCCCCCC/C=C\CCCCCCCC(=O)SCCNC(=O)CCNC(=O)[C@H](O)C(C)(C)COP(=O)(O)OP(=O)(O)OC[C@H]1O[C@@H](n2cnc3c(N)ncnc32)[C@H](O)[C@@H]1OP(=O)(O)O` [oleoyl CoA, Oleoyl CoA], for which, at HCN2 [3], the “inside-out patch clamp, Xenopus oocytes; shift in V1/2 at 1 μM” value is given as “+16.0 mV”.
Same read-out and setting: in the case of “phosphatidylinositol 4,5-bisphosphate [native PI(4,5)P2]” it was “+31.8 mV”.

For the origin of these results see publication PMC2151583 (The Journal of General Physiology, 2006).
